{"source": "paper PMC3376652", "about": "(Journal of Medicinal Chemistry, 2012)", "key": {"[1]": {"system": "recombinant HIV-1YU2 on Cf2Th-CCR5 cells", "assay": "Activation of viral infectivity in CD4-negative Cf2Th-CCR5 cells", "assay_type": "cell-based", "details": "for Activation of Viral Infectivity: Cf2Th-CCR5 cells"}, "[2]": {"system": "amphotropic murine leukemia virus (A-MLV)", "assay_type": "cell-based", "details": "for IC50: Murine leukemia virus, read-out: A-MLV IC50"}, "[3]": {"system": "17b binding to monomeric core and full-length gp120", "assay": "SPR of 17b binding to small molecule:gp120 complexes", "set-up": "species or system HIV-1"}, "[4]": {"target": "T1, gp120 from the YU2 strain (Human immunodeficiency virus type 1 group M subtype B, UniProt P35961)", "assay": "Isothermal titration calorimetry of binding to full-length gp120", "set-up": "species or system HIV-1", "details": "for surface efficiency index (S.E.I.): calculated from KD and molecular polar surface area; for binding efficiency index (B.E.I.): calculated from KD and molecular weight; for change in heat capacity of binding: calculated from the temperature dependence of the binding enthalpies; for −TΔS: calculated from ΔG = ΔH – TΔS"}, "[5]": {"system": "wild-type HIV-1YU2 virus", "assay_type": "cell-based", "details": "for IC50: read-out: HIV-1, YU-2 IC50, Table 2, Cf2Th-CD4/CCR5 cells, mean ± SD"}, "[6]": {"system": "S375Wgp120 YU2 virus", "assay": "Viral inhibition of the Phe43 cavity filling mutant virus", "assay_type": "cell-based, HIV-1"}, "[7]": {"system": "Cf2Th-CD4-CCR5 cells", "assay": "Luminescent cell-based viability assay", "set-up": "species or system canine", "details": "1 to 100 μM, 48 hours"}, "[8]": {"system": "42 HIV-1 clade B and C isolates", "assay": "Viral breadth: neutralization of HIV-1 Env-pseudoviruses in TZM-bl cells", "assay_type": "cell-based", "details": "42 HIV-1 strains (clades B and C); for neutralization breadth among the viral isolates tested: IC50 < 100 μM"}, "[9]": {"target": "T1, gp120 from the YU2 strain", "details": "ITC, 25 °C, ref Schon et al.[49] and Madani et al.[44], cited from earlier work"}, "[10]": {"system": "wild-type HIV-1YU2 virus", "details": "read-out: HIV-1, YU-2 IC50; Cf2Th-CD4/CCR5 cells, 10,000 RT units; ref Schon et al.[49] and Madani et al.[44]; cited from earlier work"}, "[11]": {"system": "recombinant HIV-1YU2 on Cf2Th-CCR5 cells", "details": "relative to 1, ref Schon et al.[49] and Madani et al.[44]; cited from earlier work"}, "[12]": {"details": "Table 2, calculated from KD, 25 °C"}}, "note": "Like-named read-outs stand apart in the source and are kept apart here. Marks after values point to notes of the source that are not given here.", "data": [{"smiles": "N[C@H]1Cc2ccccc2[C@@H]1NC(=O)C(=O)Nc1ccc(Cl)c(F)c1", "note": "[(+)-6, N^1-(4-chloro-3-fluorophenyl)-N^2-[(1S,2S)-2-amino-2,3-dihydro-1H-inden-1-yl]-oxalamide]", "values": [{"measurement": "entry enhancement of YU2 viruses into CD4-negative, CCR5-expressing cells (in words)", "setting": "[1]", "value": "enhanced viral entry in CD4-negative cells at levels comparable to those previously measured for 1–4"}, {"measurement": "Activation of Viral Infectivity", "setting": "[1]; Table 2, relative to 4", "value": "1.4 ± 0.5 (relative to 4)"}, {"measurement": "inhibition of entry of A-MLV control virus (specificity, in words)", "setting": "[2]", "value": "inhibiting entry of the A-MLV control virus with a similar IC50 value"}, {"measurement": "effect on binding of 17b to gp120", "setting": "[3]", "value": "enhance binding of 17b to both the monomeric core and full-length gp120"}, {"measurement": "ΔH", "setting": "[4]; Table 2, ITC, 25 °C", "value": -15.4, "unit": "kcal/mol"}, {"measurement": "ΔG", "setting": "[4]; [12]", "value": -7.9, "unit": "kcal/mol"}]}, {"smiles": "O=C(Nc1ccc(Cl)c(F)c1)C(=O)N[C@H]1c2ccccc2C[C@H]1O", "note": "[(+)-9, N^1-(4-chloro-3-fluorophenyl)-N^2-[(1S,2R)-2-hydroxy-2,3-dihydro-1H-inden-1-yl]oxalamide]", "values": [{"measurement": "inhibition of viral entry (in words, data not shown)", "setting": "[5]", "value": "weak inhibition of viral entry"}]}, {"smiles": "N=C(N)N[C@H]1Cc2ccccc2[C@@H]1NC(=O)C(=O)Nc1ccc(Cl)c(F)c1.O=CO", "note": "[(+)-12, N^1-(4-chloro-3-fluorophenyl)-N^2-[(1S,2S)-2-guanidino-2,3-dihydro-1H-inden-1-yl]-oxalamide formate]", "values": [{"measurement": "IC50", "setting": "[5]", "value": 20, "unit": "µM"}, {"measurement": "entry enhancement of YU2 viruses into CD4-negative, CCR5-expressing cells (in words)", "setting": "[1]", "value": "no appreciable entry enhancement"}, {"measurement": "Activation of Viral Infectivity", "setting": "[1]; Table 2, relative to 4", "value": "0.1 ± 0.0 (19)^j (relative to 4)"}, {"measurement": "sensitivity of YU2 S375Wgp120 virus to compound", "setting": "[6]", "value": "completely resistant"}, {"measurement": "inhibition of entry of A-MLV control virus (specificity, in words)", "setting": "[2]", "value": "neither compound was found to inhibit entry of A-MLV"}, {"measurement": "IC50", "setting": "[2]", "value": "> 100", "unit": "µM"}, {"measurement": "effect on binding of 17b to gp120", "setting": "[3]", "value": "enhance binding of 17b to both the monomeric core and full-length gp120"}, {"measurement": "in vitro cytotoxicity, inhibition of cell growth", "setting": "[7]", "value": "did not demonstrate measurable inhibition of cell growth"}, {"measurement": "ΔH", "setting": "[4]; Table 2, ITC, 25 °C", "value": -14.9, "unit": "kcal/mol"}, {"measurement": "ΔG", "setting": "[4]; [12]", "value": -9.0, "unit": "kcal/mol"}, {"measurement": "surface efficiency index (S.E.I.)", "setting": "[4]", "value": 6.4}, {"measurement": "binding efficiency index (B.E.I.)", "setting": "[4]", "value": 16.8}, {"measurement": "change in heat capacity of binding", "setting": "[4]", "value": "−398 ± 5 cal/(K × mol)"}, {"measurement": "percent of isolates with IC50 < 10 μM", "setting": "[8]", "value": 57, "unit": "%"}, {"measurement": "neutralization breadth among the viral isolates tested", "setting": "[8]", "value": 100, "unit": "%"}]}, {"smiles": "N[C@@H]1Cc2ccccc2[C@H]1NC(=O)C(=O)Nc1ccc(Cl)c(F)c1", "note": "[(−)-6]", "values": [{"measurement": "entry enhancement of YU2 viruses into CD4-negative, CCR5-expressing cells (in words)", "setting": "[1]", "value": "enhanced viral entry in CD4-negative cells at levels comparable to those previously measured for 1–4"}, {"measurement": "Activation of Viral Infectivity", "setting": "[1]; Table 2, relative to 4", "value": "1.0 ± 0.3 (relative to 4)"}, {"measurement": "inhibition of entry of A-MLV control virus (specificity, in words)", "setting": "[2]", "value": "inhibiting entry of the A-MLV control virus with a similar IC50 value"}, {"measurement": "effect on binding of 17b to gp120", "setting": "[3]", "value": "enhance binding of 17b to both the monomeric core and full-length gp120"}, {"measurement": "Kd", "setting": "[4]; KD, Table 2, ITC, 25 °C, PBS pH 7.4, 2% DMSO", "value": 1.2, "unit": "µM"}, {"measurement": "ΔH", "setting": "[4]; Table 2, ITC, 25 °C", "value": -19.5, "unit": "kcal/mol"}, {"measurement": "ΔG", "setting": "[4]; [12]", "value": -8.1, "unit": "kcal/mol"}, {"measurement": "−TΔS", "setting": "[4]; Table 2", "value": "+11.4 kcal/mol"}]}, {"smiles": "N=C(N)N[C@@H]1Cc2ccccc2[C@H]1NC(=O)C(=O)Nc1ccc(Cl)c(F)c1.O=CO", "note": "[(−)-12]", "values": [{"measurement": "IC50", "setting": "[5]", "value": 20, "unit": "µM"}, {"measurement": "entry enhancement of YU2 viruses into CD4-negative, CCR5-expressing cells (in words)", "setting": "[1]", "value": "no appreciable entry enhancement"}, {"measurement": "Activation of Viral Infectivity", "setting": "[1]; Table 2, relative to 4", "value": "0.0 ± 0.0 (4)^j (relative to 4)"}, {"measurement": "sensitivity of YU2 S375Wgp120 virus to compound", "setting": "[6]", "value": "completely resistant"}, {"measurement": "inhibition of entry of A-MLV control virus (specificity, in words)", "setting": "[2]", "value": "neither compound was found to inhibit entry of A-MLV"}, {"measurement": "IC50", "setting": "[2]", "value": "> 100", "unit": "µM"}, {"measurement": "effect on binding of 17b to gp120", "setting": "[3]", "value": "enhance binding of 17b to both the monomeric core and full-length gp120"}, {"measurement": "ΔH", "setting": "[4]; Table 2, ITC, 25 °C", "value": -19.4, "unit": "kcal/mol"}, {"measurement": "ΔG", "setting": "[4]; [12]", "value": -9.0, "unit": "kcal/mol"}, {"measurement": "−TΔS", "setting": "[4]; Table 2", "value": "+10.4 kcal/mol"}, {"measurement": "surface efficiency index (S.E.I.)", "setting": "[4]", "value": 6.4}, {"measurement": "binding efficiency index (B.E.I.)", "setting": "[4]", "value": 16.8}, {"measurement": "change in heat capacity of binding", "setting": "[4]", "value": "−817 ± 15 cal/(K × mol)"}, {"measurement": "percent of isolates with IC50 < 10 μM", "setting": "[8]", "value": 52, "unit": "%"}, {"measurement": "neutralization breadth among the viral isolates tested", "setting": "[8]", "value": 100, "unit": "%"}]}, {"smiles": "CC1(C)CC(NC(=O)C(=O)Nc2ccc(Cl)cc2)CC(C)(C)N1", "note": "[Compound 1]", "values": [{"measurement": "ΔG", "setting": "[9]", "value": "–7.4 kcal/mol"}, {"measurement": "ΔH", "setting": "[9]", "value": "–24.5 kcal/mol"}, {"measurement": "−TΔS", "setting": "[9]; listed as NBD-556 (1)", "value": "+17.1 kcal/mol"}, {"measurement": "IC50", "setting": "[10]", "value": "> 100", "unit": "µM"}, {"measurement": "Activation of Viral Infectivity", "setting": "[11]", "value": 1.0}, {"measurement": "percent of isolates with IC50 < 10 μM", "setting": "[8]", "value": 12, "unit": "%"}]}, {"smiles": "CC1(C)CC(NC(=O)C(=O)Nc2ccc(Br)cc2)CC(C)(C)N1", "note": "[Compound 2]", "values": [{"measurement": "ΔG", "setting": "[9]", "value": "–7.7 kcal/mol"}, {"measurement": "ΔH", "setting": "[9]", "value": "–22.8 kcal/mol"}, {"measurement": "−TΔS", "setting": "[9]; listed as NBD-557 (2)", "value": "+15.1 kcal/mol"}, {"measurement": "IC50", "setting": "[10]", "value": "> 100", "unit": "µM"}, {"measurement": "Activation of Viral Infectivity", "setting": "[11]", "value": "0.8 (relative to 1)"}]}, {"smiles": "CC1(C)CC(NC(=O)C(=O)Nc2ccc(Cl)c(F)c2)CC(C)(C)N1", "note": "[Compound 3]", "values": [{"measurement": "ΔG", "setting": "[9]", "value": "–8.3 kcal/mol"}, {"measurement": "ΔH", "setting": "[9]", "value": "–20.8 kcal/mol"}, {"measurement": "−TΔS", "setting": "[9]; listed as JRC-I-191 (3)", "value": "+12.5 kcal/mol"}, {"measurement": "Activation of Viral Infectivity", "setting": "[11]", "value": "1.9 (relative to 1)"}]}, {"smiles": "CN1C(C)(C)CC(NC(=O)C(=O)Nc2ccc(Cl)c(F)c2)CC1(C)C", "note": "[Compound 4]", "values": [{"measurement": "Activation of Viral Infectivity", "setting": "[1]; Table 1, relative to 3", "value": "2.1 (relative to 3)^i"}, {"measurement": "effect on binding of 17b to gp120", "setting": "[3]", "value": "enhance binding of 17b to both the monomeric core and full-length gp120"}, {"measurement": "ΔH", "setting": "[4]; Table 1, ITC, 25 °C", "value": "–19.7 kcal/mol"}, {"measurement": "ΔG", "setting": "[4]; Table 1, calculated from Kd, 25 °C", "value": "–8.8 kcal/mol"}, {"measurement": "−TΔS", "setting": "[4]; Table 1", "value": "+10.9 kcal/mol"}, {"measurement": "change in heat capacity of binding", "setting": "[4]", "value": "−738 ± 36 cal/(K × mol)"}]}]}
